In PubChem BioAssay AID328 (DTP/NCI, 2004):
Several values for one entry are separate records, joined by “and”; a condition that tells them apart may be missing. Equal entries are not always repeated. Inconclusive results and toxic doses are left out.

Test system: BDF1 mice, P388 leukemia ip, median survival T/C
Experiment: NCI In Vivo Anticancer Drug Screen. Data for tumor model P388 Leukemia (intraperitoneal) in B6D2F1 (BDF1) mice
Conditions: endpoint: median survival time, higher = longer survival
Procedure, shortened: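 Vehicle-dosed animals serve as the reference; survival of compound-dosed, tumour-implanted mice is divided by it.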

[1] = dose: 50.0 mg/kg/injection, schedule: Q04DX003 (ip), vehicle: Klucel (hydroxypropylcellulose) (HPC)
[2] = dose: 100.0 mg/kg/injection, schedule: Q04DX003 (ip), vehicle: Klucel (hydroxypropylcellulose) (HPC)
[3] = dose: 100.0 mg/kg/injection, schedule: Q01DX009 (ip), vehicle: Klucel (hydroxypropylcellulose) (HPC)

Compound: C[C@@H]1C[C@@H]([C@H](O)CC2CC(=O)NC(=O)C2)C(=O)[C@@H](C)C1
- T/C (dose: 5.0 mg/kg/injection, schedule: Q01DX010 (ip), vehicle: saline): 100 % of control and 104 % of control
- T/C (dose: 10.0 mg/kg/injection, schedule: Q01DX010 (ip), vehicle: saline): 90 % of control and 114 % of control
- T/C (dose: 15.0 mg/kg/injection, schedule: Q01DX009 (ip), vehicle: Klucel (hydroxypropylcellulose) (HPC)): 100 % of control
- T/C (dose: 20.0 mg/kg/injection, schedule: Q01DX010 (ip), vehicle: saline): 100 % of control (2×) and 119 % of control
- T/C (dose: 30.0 mg/kg/injection, schedule: Q01DX009 (ip), vehicle: Klucel (hydroxypropylcellulose) (HPC)): 90 % of control
- T/C (dose: 39.9 mg/kg/injection, schedule: Q04DX003 (ip), vehicle: Klucel (hydroxypropylcellulose) (HPC)): 114 % of control
- T/C (dose: 39.9 mg/kg/injection, schedule: Q04DX003 (sc), vehicle: Klucel (hydroxypropylcellulose) (HPC)): 110 % of control
- T/C (dose: 40.0 mg/kg/injection, schedule: Q01DX010 (ip), vehicle: saline): 115 % of control and 118 % of control
- T/C (dose: 50.0 mg/kg/injection, schedule: Q04DX003 (ip), vehicle: other): 121 % of control
- T/C (dose: 60.0 mg/kg/injection, schedule: Q01DX009 (ip), vehicle: Klucel (hydroxypropylcellulose) (HPC)): 90 % of control
- T/C (dose: 60.0 mg/kg/injection, schedule: Q01DX010 (ip), vehicle: saline): 168 % of control
- T/C (dose: 60.0 mg/kg/injection, schedule: Q04DX003 (ip), vehicle: Klucel (hydroxypropylcellulose) (HPC)): 118 % of control
- T/C (dose: 64.8 mg/kg/injection, schedule: Q01DX001 (sc), vehicle: Klucel (hydroxypropylcellulose) (HPC)): 108 % of control
- T/C (dose: 64.8 mg/kg/injection, schedule: Q04DX003 (ip), vehicle: Klucel (hydroxypropylcellulose) (HPC)): 119 % of control
- T/C (dose: 64.8 mg/kg/injection, schedule: Q04DX003 (sc), vehicle: Klucel (hydroxypropylcellulose) (HPC)): 107 % of control
- T/C (dose: 100.0 mg/kg/injection, schedule: Q04DX003 (ip), vehicle: other): 178 % of control
- T/C (dose: 108.0 mg/kg/injection, schedule: Q01DX001 (ip), vehicle: Klucel (hydroxypropylcellulose) (HPC)): 109 % of control
- T/C (dose: 108.0 mg/kg/injection, schedule: Q01DX001 (sc), vehicle: Klucel (hydroxypropylcellulose) (HPC)): 110 % of control
- T/C (dose: 108.0 mg/kg/injection, schedule: Q04DX003 (ip), vehicle: Klucel (hydroxypropylcellulose) (HPC)): 118 % of control
- T/C (dose: 108.0 mg/kg/injection, schedule: Q04DX003 (sc), vehicle: Klucel (hydroxypropylcellulose) (HPC)): 96 % of control
- T/C (dose: 120.0 mg/kg/injection, schedule: Q04DX003 (ip), vehicle: Klucel (hydroxypropylcellulose) (HPC)): 90 % of control
- T/C (dose: 180.0 mg/kg/injection, schedule: Q01DX001 (ip), vehicle: Klucel (hydroxypropylcellulose) (HPC)): 108 % of control
- T/C (dose: 180.0 mg/kg/injection, schedule: Q01DX001 (sc), vehicle: Klucel (hydroxypropylcellulose) (HPC)): 116 % of control
- T/C (dose: 180.0 mg/kg/injection, schedule: Q04DX003 (ip), vehicle: Klucel (hydroxypropylcellulose) (HPC)): 98 % of control
- T/C (dose: 200.0 mg/kg/injection, schedule: Q04DX003 (ip), vehicle: other): 97 % of control
- T/C (dose: 300.0 mg/kg/injection, schedule: Q01DX001 (ip), vehicle: Klucel (hydroxypropylcellulose) (HPC)): 114 % of control
- T/C (dose: 300.0 mg/kg/injection, schedule: Q01DX001 (sc), vehicle: Klucel (hydroxypropylcellulose) (HPC)): 118 % of control

Compound: CC(=O)Nc1ccc2c(c1)C[N+](C)(C1CCCCC1)CO2 (stereo not given)
- T/C (dose: 25.0 mg/kg/injection, schedule: Q01DX009 (ip), vehicle: saline with Tween-80): 109 % of control
- T/C (dose: 25.0 mg/kg/injection, schedule: Q04DX003 (ip), vehicle: saline with Tween-80): 95 % of control
- T/C (dose: 50.0 mg/kg/injection, schedule: Q01DX009 (ip), vehicle: saline with Tween-80): 109 % of control
- T/C (dose: 50.0 mg/kg/injection, schedule: Q04DX003 (ip), vehicle: saline with Tween-80): 91 % of control
- T/C (dose: 100.0 mg/kg/injection, schedule: Q04DX003 (ip), vehicle: saline with Tween-80): 95 % of control

Compound: Clc1c(Cl)c(CBr)c(Cl)c(CBr)c1Cl
- T/C (dose: 20.0 mg/kg/injection, schedule: Q01DX009 (ip), vehicle: Klucel (hydroxypropylcellulose) (HPC)): 100 % of control
- T/C (dose: 40.0 mg/kg/injection, schedule: Q01DX009 (ip), vehicle: Klucel (hydroxypropylcellulose) (HPC)): 95 % of control
- T/C (dose: 50.0 mg/kg/injection, schedule: Q01DX009 (ip), vehicle: saline sonified): 113 % of control
- T/C [1]: 100 % of control
- T/C (dose: 88.0 mg/kg/injection, schedule: Q04DX003 (ip), vehicle: Klucel (hydroxypropylcellulose) (HPC)): 108 % of control
- T/C (dose: 100.0 mg/kg/injection, schedule: Q01DX009 (ip), vehicle: saline sonified): 118 % of control
- T/C [2]: 110 % of control
- T/C (dose: 132.0 mg/kg/injection, schedule: Q04DX003 (ip), vehicle: Klucel (hydroxypropylcellulose) (HPC)): 91 % of control
- T/C (dose: 132.0 mg/kg/injection, schedule: Q04DX003 (ip), vehicle: saline sonified): 122 % of control
- T/C (dose: 200.0 mg/kg/injection, schedule: Q04DX003 (ip), vehicle: saline sonified): 150 % of control

Compound: CC1(C)N=C(N)N=C(N)N1c1ccc(CCCCc2cccc(S(=O)(=O)F)c2)c(Cl)c1
- T/C (dose: 1.0 mg/kg/injection, schedule: Q01DX009 (ip), vehicle: saline with Tween-80): 119 % of control
- T/C (dose: 1.32 mg/kg/injection, schedule: Q01DX009 (ip), vehicle: saline with Tween-80): 150 % of control
- T/C (dose: 2.0 mg/kg/injection, schedule: Q01DX009 (ip), vehicle: saline with Tween-80): 150 % of control
- T/C (dose: 3.0 mg/kg/injection, schedule: Q01DX009 (ip), vehicle: saline with Tween-80): 154 % of control
- T/C (dose: 4.0 mg/kg/injection, schedule: Q01DX009 (ip), vehicle: saline with Tween-80): 161 % of control
- T/C (dose: 8.0 mg/kg/injection, schedule: Q01DX009 (ip), vehicle: saline with Tween-80): 161 % of control and 170 % of control
- T/C (dose: 12.0 mg/kg/injection, schedule: Q01DX009 (ip), vehicle: saline with Tween-80): 170 % of control
- T/C (dose: 12.5 mg/kg/injection, schedule: Q04DX003 (ip), vehicle: saline with Tween-80): 109 % of control
- T/C (dose: 18.0 mg/kg/injection, schedule: Q01DX009 (ip), vehicle: saline with Tween-80): 200 % of control

Compound: CC1(C)OC(C)(C)c2c1nnc(-c1ccccc1[N+](=O)[O-])[n+]2[O-]
- T/C (dose: 50.0 mg/kg/injection, schedule: Q01DX005 (ip), vehicle: saline with Tween-80): 93 % of control
- T/C (dose: 100.0 mg/kg/injection, schedule: Q01DX005 (ip), vehicle: saline with Tween-80): 88 % of control
- T/C (dose: 200.0 mg/kg/injection, schedule: Q01DX005 (ip), vehicle: saline with Tween-80): 86 % of control

Compound: Cc1cccc(CSc2ncnc3nc[nH]c23)n1
- T/C (dose: 25.0 mg/kg/injection, schedule: Q01DX009 (ip), vehicle: Klucel (hydroxypropylcellulose) (HPC)): 100 % of control
- T/C (dose: 25.0 mg/kg/injection, schedule: Q04DX003 (ip), vehicle: Klucel (hydroxypropylcellulose) (HPC)): 104 % of control
- T/C (dose: 50.0 mg/kg/injection, schedule: Q01DX009 (ip), vehicle: Klucel (hydroxypropylcellulose) (HPC)): 87 % of control
- T/C [1]: 100 % of control
- T/C [3]: 91 % of control
- T/C [2]: 92 % of control and 104 % of control

Compound: NC(=S)N/N=C\c1ncnc2nc[nH]c12
- T/C (dose: 1.0 mg/kg/injection, schedule: Q01DX009 (ip), vehicle: Klucel (hydroxypropylcellulose) (HPC)): 107 % of control
- T/C (dose: 2.0 mg/kg/injection, schedule: Q01DX009 (ip), vehicle: Klucel (hydroxypropylcellulose) (HPC)): 111 % of control
- T/C (dose: 4.0 mg/kg/injection, schedule: Q01DX009 (ip), vehicle: Klucel (hydroxypropylcellulose) (HPC)): 150 % of control
- T/C (dose: 8.0 mg/kg/injection, schedule: Q01DX009 (ip), vehicle: Klucel (hydroxypropylcellulose) (HPC)): 160 % of control
- T/C (dose: 16.0 mg/kg/injection, schedule: Q01DX009 (ip), vehicle: Klucel (hydroxypropylcellulose) (HPC)): 175 % of control
- T/C (dose: 32.0 mg/kg/injection, schedule: Q01DX009 (ip), vehicle: Klucel (hydroxypropylcellulose) (HPC)): 185 % of control

Compound: Cc1ccc2nc3c4ccccc4c4ccccc4c3nc2c1
- T/C [3]: 109 % of control
- T/C (dose: 200.0 mg/kg/injection, schedule: Q01DX009 (ip), vehicle: Klucel (hydroxypropylcellulose) (HPC)): 90 % of control
- T/C (dose: 400.0 mg/kg/injection, schedule: Q01DX009 (ip), vehicle: Klucel (hydroxypropylcellulose) (HPC)): 100 % of control

Compound: c1ccc(C2=C(c3ccccc3)c3cccc4cccc2c34)cc1
- T/C (dose: 100.0 mg/kg/injection, schedule: Q01DX001 (ip), vehicle: Klucel (hydroxypropylcellulose) (HPC)): 95 % of control and 110 % of control
- T/C [2]: 115 % of control
- T/C (dose: 200.0 mg/kg/injection, schedule: Q01DX001 (ip), vehicle: Klucel (hydroxypropylcellulose) (HPC)): 105 % of control
- T/C (dose: 200.0 mg/kg/injection, schedule: Q04DX003 (ip), vehicle: Klucel (hydroxypropylcellulose) (HPC)): 120 % of control
- T/C (dose: 400.0 mg/kg/injection, schedule: Q01DX001 (ip), vehicle: Klucel (hydroxypropylcellulose) (HPC)): 95 % of control and 105 % of control
- T/C (dose: 400.0 mg/kg/injection, schedule: Q04DX003 (ip), vehicle: Klucel (hydroxypropylcellulose) (HPC)): 110 % of control
